Literature values as cited in US20100086495A1, “COMPOSITIONS AND METHODS FOR ENHANCING TRANSMUCOSAL DELIVERY” (DERMA-YOUNG LTD., priority 2007, published 2010).

Settings: vitamin B12 deficient subjects

vitamin B12
increase in serum concentration levels of the vitamin, sublingual versus conventional oral vitamin B12: same extent of increase
